Data: patent US8193239B2, “Substituted 1-cyanoethylheterocyclylcarboxamide compounds” (AstraZeneca AB, priority 2009, dated 2012)
Counter-ions that a name gives are not always drawn.

What follows are molecules tested against Recombinant Human (rh) DPP1 (Homo sapiens, UniProt P53634) (assay: Fluorescence Assay for Recombinant Human (rh) DPP1). Settings: rhDPP1, substrate H-Gly-Arg-AMC, pH5.0, 22° C., pre-incubated 30-60 min; read-out: DPP1 activity, pIC50 (converted).
Format: biochemical
Description: Fluorescence Assay for Recombinant Human (rh) DPP1
The activity of DPP1 was determined by measuring the enzymatic release of aminomethyl coumarin (AMC) from the peptide substrate (H-Gly-Arg-AMC), which leads to an increase in fluorescence intensity at λex=350 nm and λem=450 nm. The assay was carried out in black 384 well plates in a final volume of 50 μl at 22° C. The assay conditions contained the following: 25 mM piperazine buffer pH5.0; 50 mM NaCl, 5 mM DTT; 0.01% (v/v) Triton X-100; 100 μM H-Gly-Arg-AMC and rhDPP1 ([…]). […] A standard DPP1 inhibitor (vinyl sulfone, see below, or Example 24 from WO2009/074829) was used as a positive control in the assay. Routinely, inhibitors were pre-incubated with rhDPP1 for 30-60 min prior to the addition of the peptide substrate to start the reaction for a further 60 min at 22° C. After that the plates were immediately read in a fluorescence plate reader using the above emission and excitation wavelengths [modified from Kam, C M, Gotz, M G, Koot, G, McGuire, M J, Thiele, D L, Hudig, D & Powers, J C (2004). Arch Biochem Biophys, 427, 123-134 & McGuire, M J, Lipsky, P E & Thiele, D L (1992). Arch Biochem Biophys, 295, 280-288].

Sequence of Recombinant Human (rh) DPP1 (P53634 231-394 limits assumed): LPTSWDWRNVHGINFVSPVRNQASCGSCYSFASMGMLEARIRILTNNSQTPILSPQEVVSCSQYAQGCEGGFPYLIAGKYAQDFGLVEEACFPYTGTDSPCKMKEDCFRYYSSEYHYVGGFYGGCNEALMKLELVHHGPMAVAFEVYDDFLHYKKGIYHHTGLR
Sequence of Recombinant Human (rh) DPP1 (P53634 25-134 limits assumed): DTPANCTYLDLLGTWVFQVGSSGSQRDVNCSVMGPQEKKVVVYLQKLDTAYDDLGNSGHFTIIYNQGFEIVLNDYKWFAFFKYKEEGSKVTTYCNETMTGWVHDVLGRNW
Sequence of Recombinant Human (rh) DPP1 (P53634 395-463 limits assumed): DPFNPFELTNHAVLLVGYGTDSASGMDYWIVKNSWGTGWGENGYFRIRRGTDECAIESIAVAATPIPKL

| Structure (SMILES) | IC50 |
| --- | --- |
| COCCn1c(=O)sc2ccc(-c3ccc(C[C@@H](C#N)NC(=O)C4(N)CCOCC4)cc3)cc21 [Example 9, (S)-4-Amino-N-(1-cyano-2-(4-(3-(2-methoxyethyl)-2-oxo-2,3-dihydrobenzo[d]thiazol-5-yl)phenyl)ethyl)tetrahydro-2H-pyran-4-carboxamide trifluoroacetic acid salt] | < 0.316 nM |
| N#C[C@H](Cc1ccc(-c2ccc(S(=O)(=O)N3CCOCC3)cc2)cc1)NC(=O)C1(N)CCOCC1 [Example 27, (S)-4-Amino-N-(1-cyano-2-(4′-(morpholinosulfonyl)biphenyl-4-yl)ethyl)tetrahydro-2H-pyran-4-carboxamide trifluoroacetic acid salt] | 1.58 nM |
| CN1Cc2cc(-c3ccc(C[C@@H](C#N)NC(=O)C4(N)CCOCC4)cc3)ccc2S1(=O)=O [Example 16, (S)-4-Amino-N-{cyano-2-[4-(2-methyl-1,1-dioxido-2,3-dihydro-1,2-benzisothiazol-5-yl)phenyl]ethyl}tetrahydro-2H-pyran-4-carboxamide trifluoroacetic acid salt] | 1 nM |
| Cn1c(=O)oc2ccc(-c3ccc(C[C@@H](C#N)NC(=O)C4(N)CCOCC4)cc3)cc21 [Example 17, (S)-4-amino-N-(1-cyano-2-(4-(3-methyl-2-oxo-2,3-dihydrobenzo[d]oxazol-5-yl)phenyl)ethyl)tetrahydro-2H-pyran-4-carboxamide] | 0.316 nM |
| CN1Cc2ccc(-c3ccc(C[C@@H](C#N)NC(=O)C4(N)CCOCC4)cc3)cc2C1=O [Example 30, (S)-4-Amino-N-(1-cyano-2-(4-(2-methyl-3-oxoisoindolin-5-yl)phenyl)ethyl)tetrahydro-2H-pyran-4-carboxamide trifluoroacetic acid salt] | 5.01 nM |
| CN1C(=O)CSc2cc(-c3ccc(C[C@@H](C#N)NC(=O)C4(N)CCOCC4)cc3)ccc21 [Example 28, (S)-4-Amino-N-(1-cyano-2-(4-(4-methyl-3-oxo-3,4-dihydro-2H-benzo[b][1,4]thiazin-7-yl)phenyl)ethyl)tetrahydro-2H-pyran-4-carboxamide] | 0.398 nM |
| N#C[C@H](Cc1ccc(-c2ccc3c(c2)CS(=O)(=O)C3)cc1)NC(=O)C1(N)CCOCC1 [Example 34, 4-Amino-N-{(1S)-1-cyano-2-[4-(2,2-dioxido-1,3-dihydro-2-benzothiophen-5-yl)phenyl]ethyl}tetrahydro-2H-pyran-4-carboxamide] | 1.26 nM |
| CN1Cc2cc(-c3ccc(C[C@@H](C#N)NC(=O)C4(N)CCOCC4)cc3)ccc2C1=O [Example 31, (S)-4-Amino-N-(1-cyano-2-(4-(2-methyl-1-oxoisoindolin-5-yl)phenyl)ethyl)tetrahydro-2H-pyran-4-carboxamide] | 1.58 nM |
